Tested on: decidual stromal cells
Test: PCNA staining of decidua on E6
Assay type: in vivo, mouse
Procedure: To test this hypothesis, mice were treated with AGM-1470 on E1 and sacrificed at E6, a time point prior to placental formation. The uteri of the mice were examined by antibodies to Factor VIII and PCNA to determine if there was any difference in the degree of endometrial angiogenesis or the proliferative response of the decidua induced by trophoblast invasion. However, in the decidua there was a 50% decrease in the proliferation of stromal cells in the AGM-1470 treated mice as compared to control (PCNA staining/X630 field in control was 48%±3, n=4, versus 24%±5, n=4, P≦0.005 in AGM-1470 treated mice. See FIG. 4A and 4B). […]
To determine the rate of cellular proliferation, staining for proliferating cell nuclear antigen (PCNA) was performed. […] Positive staining was detected by using horse radish peroxidase-conjugated secondary (Dako) and tertiary (Dako) antibodies, and DAB as a chromagen. The PCNA labeling index was determined by counting the percentage of stained cells under light microscopy within selected 630× fields. A minimum of 1,000 cells were counted for each specimen.
In experiments with AGM-1470 treatment of pregnant mice, transverse sections through embryos contained within the uterus were stained. Microvessels density was determined at the intersite endometrium and PCNA was determined in the decidual stroma. […]

CO[C@@H]1[C@H](OC(=O)NC(=O)CCl)CC[C@]2(CO2)[C@H]1[C@@]1(C)O[C@@H]1CC=C(C)C [AGM-1470, O-chloroacetylcarbamoyl fumagillol]
decrease in proliferation of decidual stromal cells vs control (treated on E1, sacrificed E6): 50% | PCNA staining/X630 field in decidua (treated on E1, sacrificed E6, n=4): 24%±5

— patent US6441027B1, “Method of regulating the female reproductive system through angiogenesis inhibitors” (Children's Medical Center Corporation, priority 1996, dated 2002)
